These results are taken from ChEMBL document CHEMBL4138114, “Pharmacophore guided discovery of small-molecule interleukin 15 inhibitors” (Eur J Med Chem, 2017).

Active and inactive are the calls of the source. The calls are words filed in the database; no cut-off is given here.

Holding throughout (assay type): cell-based
In one series the test system is PBMC. The series can be described thus: Cytotoxicity against human PBMC cells up to 200 uM after 48 hrs by CellTiter 96 AQueous one solution cell proliferation assay.
The target in series [1] is T1, IL15-IL15 receptor (Homo sapiens) (UniProt P40933+Q13261). The series is described as follows: Inhibition of IL-15 (unknown origin)/IL-15Ralpha interaction in human PBMC cells assessed as reduction of TNF-alpha synthesis preincubated for 30 mins followed by IL-15 addition measured after 48 hrs by ELISA. Background: An ELISA detects its analyte on a solid surface through an enzyme-linked reagent.
T1 sequence (P40933 49-162 limits assumed): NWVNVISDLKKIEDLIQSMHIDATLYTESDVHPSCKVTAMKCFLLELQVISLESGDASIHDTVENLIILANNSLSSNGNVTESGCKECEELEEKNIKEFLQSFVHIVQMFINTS
T1 sequence (Q13261 31-267 partner limits assumed): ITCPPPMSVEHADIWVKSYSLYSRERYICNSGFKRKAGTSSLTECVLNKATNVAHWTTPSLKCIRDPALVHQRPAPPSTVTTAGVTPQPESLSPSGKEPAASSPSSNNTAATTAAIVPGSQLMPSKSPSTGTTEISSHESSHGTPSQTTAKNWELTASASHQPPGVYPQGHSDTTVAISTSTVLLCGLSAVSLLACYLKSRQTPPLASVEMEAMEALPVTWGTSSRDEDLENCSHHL

Series [2] deals with T1, IL15-IL15 receptor (Homo sapiens). The series is described as follows: Inhibition of IL-15 (unknown origin)/IL-15Ralpha interaction in human PBMC cells assessed as reduction of IL-17 synthesis preincubated for 30 mins followed by IL-15 addition measured after 48 hrs by ELISA.

With `C/C(C/C(C)=N/N=C(N)N)=N\N=C(N)N`, the Activity entry in the series with PBMC is recorded as “Non-Toxic”. Also, the “TNF-alpha synthesis inhibition (active/not active)” value in series [1] was “Active”. Further, the inhibition entry in series [2] is “Active”.

Consider `NC(N)=NC(=O)CNCC(=O)N=C(N)N`, for which, in the series with PBMC, the Activity result was “Non-Toxic”. Further, the “TNF-alpha synthesis inhibition (active/not active)” value in series [1] was “Active”. The inhibition result in series [2] was “Active”.

Consider `O=C(O)c1ccc(CSc2nnnn2C2CCCCC2)cc1`, for which the Activity result in the series with PBMC is reported as “Non-Toxic”. For the same compound, the “TNF-alpha synthesis inhibition (active/not active)” value in series [1] is “inactive”. For the same compound, the inhibition result in series [2] is “inactive”.

Consider `CCC(=O)Nc1ccc(Cc2ccc(NC(=O)CC)c(C(=O)O)c2)cc1C(=O)O`, for which the Activity entry in the series on PBMC was “Non-Toxic”. In series [1], the “TNF-alpha synthesis inhibition (active/not active)” value was “inactive”. For the same compound, the inhibition result in series [2] is “inactive”.

As for `O=C(O)c1ccc(CSc2nnnn2-c2ccc(F)cc2)cc1`, the Activity entry with PBMC was “Non-Toxic”. For the same compound, the “TNF-alpha synthesis inhibition (active/not active)” value in series [1] is “Active”. Besides, the inhibition entry in series [2] is “Active”.

As to `O=C(O)Cc1ccc(NC(=O)C2CC=CCC2C(=O)O)cc1` (configuration not stated), in the series with PBMC, the Activity result is given as “Non-Toxic”. The “TNF-alpha synthesis inhibition (active/not active)” value in series [1] is “inactive”. In addition, the inhibition entry in series [2] is “inactive”.

On to `COc1ccc(-n2nnnc2S(=O)(=O)Cc2ccc(C(=O)O)cc2)cc1`, for which, in the series with PBMC, the Activity entry is listed as “Non-Toxic”. The “TNF-alpha synthesis inhibition (active/not active)” value in series [1] is “inactive”. Besides, in series [2], the inhibition entry was “inactive”.

For the compound `O=C(O)c1ccc(CNC(=O)C2CC=CCC2C(=O)O)cc1` (configuration not stated), in the series with PBMC, the Activity result is “Non-Toxic”. In addition, the “TNF-alpha synthesis inhibition (active/not active)” value in series [1] is “inactive”. In addition, the inhibition result in series [2] is “inactive”.

For `COC(=O)CCC(=O)NCc1ccc(C(=O)OC)cc1`, the Activity entry in the series on PBMC is “Non-Toxic”. Also, the “TNF-alpha synthesis inhibition (active/not active)” value in series [1] is “Active”. The inhibition entry in series [2] was “Active”.

As to `Cc1nnc(SCC2=C(C(=O)O)N3C(=O)[C@@H](NC(=O)Cn4cnnn4)[C@H]3SC2)s1` [CEFAZOLIN], the Activity entry in the series with PBMC is given as “Non-Toxic”. The “TNF-alpha synthesis inhibition (active/not active)” value in series [1] was “Active”. Besides, the inhibition result in series [2] is “Active”.

For `NC(CCCCCCC(N)C(=O)O)C(=O)O` (configuration not stated), in the series with PBMC, the Activity result was “Non-Toxic”. Besides, the “TNF-alpha synthesis inhibition (active/not active)” value in series [1] is “Active”. Further, the inhibition result in series [2] is “Active”.

Take `O=C(O)c1ccc(CNC(=O)C2CCCCC2C(=O)O)cc1` (configuration not stated): the Activity result in the series with PBMC was “Non-Toxic”. Further, the “TNF-alpha synthesis inhibition (active/not active)” value in series [1] was “Active”. Also, in series [2], the inhibition entry is “Active”.

As for `NCCC(=O)NCCc1c[nH]cn1` [CARCININE], in the series with PBMC, the Activity result is given as “Non-Toxic”. Moreover, in series [1], the “TNF-alpha synthesis inhibition (active/not active)” value was “Active”. Besides, the inhibition entry in series [2] was “Active”.

As for `NCCC(=O)N[C@@H](Cc1cnc[nH]1)C(=O)O` [CARNOSINE], the Activity result with PBMC is reported as “Non-Toxic”.

As for `NCCC(=O)N[C@@H](Cc1c[nH]cn1)C(=O)O`, the “TNF-alpha synthesis inhibition (active/not active)” value in series [1] is “inactive”. Also, in series [2], the inhibition entry is “inactive”.

With `O=C(O)CCC(=O)NCc1ccc(C(=O)O)cc1`, the Activity result in the series with PBMC was “Non-Toxic”. The “TNF-alpha synthesis inhibition (active/not active)” value in series [1] is “inactive”. Also, the inhibition entry in series [2] is “inactive”.

`O=C(O)CCC(=O)Nc1cc(NC(=O)CCC(=O)O)cc(C(=O)O)c1`: in the series on PBMC, the Activity entry is given as “Non-Toxic”. For the same compound, the “TNF-alpha synthesis inhibition (active/not active)” value in series [1] is “Active”. Also, the inhibition entry in series [2] was “Active”.

With `O=C(O)c1ccc(CNC(=O)C2C3CCC(C3)C2C(=O)O)cc1` (configuration not stated), the Activity result in the series with PBMC is “Non-Toxic”. In addition, in series [1], the “TNF-alpha synthesis inhibition (active/not active)” value is “Active”. For the same compound, in series [2], the inhibition entry is “Active”.

With `COC(=O)c1ccc(O)c(C)c1O`, the Activity entry in the series on PBMC is “Non-Toxic”. For the same compound, the “TNF-alpha synthesis inhibition (active/not active)” value in series [1] is “Active”. The inhibition entry in series [2] was “Active”.

In the case of `COc1ccc(S(=O)(=O)Nc2cccc(C(=O)O)c2)cc1C(=O)O`, the Activity entry in the series on PBMC was “Non-Toxic”. In addition, the “TNF-alpha synthesis inhibition (active/not active)” value in series [1] was “inactive”. Besides, the inhibition result in series [2] was “inactive”.
